{"source": "the NIST ThermoML archive (doi:10.1016/j.jct.2013.05.022)", "test": "Boiling temperature at pressure P", "conditions": "Liquid, Ebulliometric method (Recirculating still)", "note": "± gives the expanded uncertainty stated by the source."}
{"smiles": "CCO", "note": "[ethanol]", "values": [{"measurement": "Boiling temperature at pressure P", "setting": "13.33 kPa", "value": "35.7 ± 0.9", "unit": "°C"}, {"measurement": "Boiling temperature at pressure P", "setting": "20 kPa", "value": "43.1 ± 0.8", "unit": "°C"}, {"measurement": "Boiling temperature at pressure P", "setting": "26.66 kPa", "value": "48.5 ± 0.8", "unit": "°C"}, {"measurement": "Boiling temperature at pressure P", "setting": "33.33 kPa", "value": "53 ± 0.8", "unit": "°C"}, {"measurement": "Boiling temperature at pressure P", "setting": "40 kPa", "value": "57 ± 0.8", "unit": "°C"}, {"measurement": "Boiling temperature at pressure P", "setting": "53.33 kPa", "value": "63.1 ± 0.8", "unit": "°C"}, {"measurement": "Boiling temperature at pressure P", "setting": "66.66 kPa", "value": "68.2 ± 0.8", "unit": "°C"}, {"measurement": "Boiling temperature at pressure P", "setting": "79.99 kPa", "value": "72.5 ± 0.8", "unit": "°C"}, {"measurement": "Boiling temperature at pressure P", "setting": "93.33 kPa", "value": "76.2 ± 0.8", "unit": "°C"}, {"measurement": "Boiling temperature at pressure P", "setting": "98.12 kPa", "value": "77.7 ± 0.8", "unit": "°C"}, {"measurement": "Boiling temperature at pressure P", "setting": "101.33 kPa", "value": "78.2 ± 0.8", "unit": "°C"}]}
{"smiles": "C=CC(C)(O)CCC=C(C)C", "note": "(centres undefined) [3,7-dimethyl-1,6-octadien-3-ol]", "values": [{"measurement": "Boiling temperature at pressure P", "setting": "13.33 kPa", "value": "133.2 ± 0.9", "unit": "°C"}, {"measurement": "Boiling temperature at pressure P", "setting": "20 kPa", "value": "143.7 ± 0.9", "unit": "°C"}, {"measurement": "Boiling temperature at pressure P", "setting": "26.66 kPa", "value": "152.1 ± 0.9", "unit": "°C"}, {"measurement": "Boiling temperature at pressure P", "setting": "33.33 kPa", "value": "159 ± 0.8", "unit": "°C"}, {"measurement": "Boiling temperature at pressure P", "setting": "40 kPa", "value": "164.7 ± 0.8", "unit": "°C"}, {"measurement": "Boiling temperature at pressure P", "setting": "53.33 kPa", "value": "174.1 ± 0.8", "unit": "°C"}, {"measurement": "Boiling temperature at pressure P", "setting": "66.66 kPa", "value": "182 ± 0.8", "unit": "°C"}, {"measurement": "Boiling temperature at pressure P", "setting": "79.99 kPa", "value": "188.5 ± 0.8", "unit": "°C"}]}
